Results on one compound are retold here after paper PMC5522084, “Eg5 inhibitor YL001 induces mitotic arrest and inhibits tumor proliferation” (Oncotarget, 2017).

For data set [1], the system named is A2780/taxol. The data set is described as follows: Antiproliferation assay (Alamar Blue), A2780/taxol. The conditions noted are these: Homo sapiens, taxol resistant ovarian cancer, read-out: EC50 of YL001. Type of data set: cell-based. As for the experimental part:
(§1) Cytotoxic activities of the compounds of interest were investigated with human cancer cell lines using the Alamar Blue assay. Cells (5 × 10^3 cells/well) were seeded into 96-well plates (Corning, 3603). Various sample concentrations (compounds of interest) were added to each well in duplicate, and incubated at 37°C with 5% CO2 for two days such that cells were in the exponential growth phase at the time of drug addition. Ten microliters of the Alamar Blue Solution (Invitrogen, Alamar Blue) were added to each well and incubated at 37°C for up to 2 hours in a humidified, 5% CO2 atmosphere. After incubation, florescence was measured using a microplate reader (Tecan) at an excitation wavelength of 540 nm and emission of 590 nm. Each inhibitory concentration was measured in triplicate, and averaged data points ± SD are shown. Statistical analysis was carried out with GraphPad Prism 5 and the fifty-percent effective concentration is expressed as EC50.

The target in data set [2] is T1, Eg5 motor domain (Homo sapiens, UniProt P52732).
T1 sequence (P52732 18-359 limits assumed): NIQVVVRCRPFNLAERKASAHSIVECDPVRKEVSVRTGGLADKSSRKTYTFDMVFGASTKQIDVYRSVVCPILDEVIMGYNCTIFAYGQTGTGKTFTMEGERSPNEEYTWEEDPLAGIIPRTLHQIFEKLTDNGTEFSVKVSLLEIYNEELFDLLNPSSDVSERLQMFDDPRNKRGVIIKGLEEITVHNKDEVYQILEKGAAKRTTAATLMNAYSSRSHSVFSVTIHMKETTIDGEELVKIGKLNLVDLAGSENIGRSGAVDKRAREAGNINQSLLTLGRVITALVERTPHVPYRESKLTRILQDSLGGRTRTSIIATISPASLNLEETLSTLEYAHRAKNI
The data set is described as follows: SPR assay (Biacore T200). It is filed as binding. The conditions noted are these: SPR Biacore T200, 25°C. As for the experimental part:
Interactions of the Eg5 motor domain and compounds of interest were analyzed using the Biacore T200 system (GE Healthcare, Uppsala, Sweden) at 25°C. Eg5 motor protein obtained as previously described (51) was immobilized on a sensor chip (CM5) using an amine coupling kit (GE Healthcare, Buckinghamshire, UK). […] For binding studies, analytes were applied at corresponding concentrations in running buffer at a flow rate of 30 μL/minute with a contact time of 60 seconds and a dissociation time of 60 seconds. Chip platforms were washed with running buffer and 50% DMSO. Data were analyzed with Biacore evaluation software (T200 Version 1.0) by curve fitting using a steady state 1:1 binding model and a kinetic model.
(In general: Surface plasmon resonance follows binding to a sensor surface in real time, without labels.)

Data set [3] deals with HCT 116. The data set is described as follows: Cell cycle analysis by flow cytometry. It is filed as cell-based, Human. Conditions: HCT 116, 8 hours treatment with 50 μM. Background: Flow cytometry measures light scatter and fluorescence of single cells or particles in a stream.
In data set [4] the test system is HeLa. The data set is described as follows: Antiproliferation assay (Alamar Blue), HeLa. Type of data set: cell-based. The conditions noted are these: Homo sapiens, 48 h, HeLa cell line, two days. As for the experimental part: as §1
In data set [5] the test system is HeLa cells. The data set is described as follows: Colony formation. The conditions noted are these: Homo sapiens, exposed 24 hours, cultured 10 days. Type of data set: cell-based. As for the experimental part:
HeLa cells (5 × 10^2 cells/well) were seeded into 6-well plates and were treated with a series of gradient concentrations of YL001 for 24 hours, followed by washing and continual culture for 10 days. DMSO was used as a negative control, and STLC was used as a positive control. Cells were fixed with ethanol for more than 30 minutes and dyed with crystal violet for more than 30 minutes. Clones were counted with OpenCFU [54].

Data set [6] concerns DU145. The data set is described as follows: Antiproliferation assay (Alamar Blue), DU145. The conditions noted are these: Homo sapiens, DU-145; DU145, prostate cancer; read-out: EC50 of YL001. It is filed as cell-based. As to the method: as §1
(Alamar Blue is a resazurin reagent that responds to reducing activity.)

The test system of data set [7] is 4T1/6TG. The data set is described as follows: Antiproliferation assay (Alamar Blue), 4T1/6TG. The conditions noted are these: 6TG resistant mouse breast cancer, read-out: EC50 of YL001. Type of data set: cell-based.
A short description of data set [8]: Nucleophilic addition assay. Conditions: incubated with cysteine and lysine for 24 hours at 37°C. As for the experimental part:
0.5 mmol YL001 was solved in a solution of THF/H2O (v:v = 1:1) and stirred with nucleophiles (0.5 mmol L-cysteine or L-lysine) at 37°C for 24 hours. Products were then validated by HRMS.

Data set [9] deals with B16. The data set is described as follows: Antiproliferation assay (Alamar Blue), B16. Type of data set: cell-based. The conditions noted are these: B16, mouse melanoma; read-out: EC50 of YL001.
Data set [10] deals with MCF10A. The data set is described as follows: Antiproliferation assay, normal breast cell line MCF10A. Type of data set: cell-based. As to the method:
as §1

Data set [11] has as its system U87. The data set is described as follows: Antiproliferation assay (Alamar Blue), U87. It is filed as cell-based. The conditions noted are these: Homo sapiens, U-87 MG; U87, brain cancer; read-out: EC50 of YL001. As to the method:
as §1

Data set [12] relates to B16 melanoma xenograft. The data set is described as follows: B16 melanoma xenograft model. Type of data set: in vivo. As for the experimental part:
B16 cells (1 × 10^6 cells) were inoculated s.c. into 6-week old C57BL/6 mice. Tumor volume was calculated as: V = 1/2× L (long axis)×W^2 (short axis). When the volume of tumor was between 50 to 100 mm^3, YL001 was administered i.p. daily on days 1 to 10 at 200 mg/kg. Doses and schedules were determined by tolerance studies. Mice were kept under specific pathogen-free conditions, and all animal experiments were approved by the Committee on Animal Research at our institute.
Vehicle (10% (v%) N,N-Dimethylacetamide (DMAC) in 200 μL olive oil per 20 g mouse) was administered daily i.p. as a control on days 1 to 10. Drug efficiency was expressed as the ratio of the mean experimental V/V0 value to that of the control group [treated versus control (T/C) ratio], where V is the tumor volume on the day of evaluation and V0 is the tumor volume on the day of initial treatment with the drug. Drug efficiency was also evaluated by median survival. All statistical analysis was performed using Graphpad Prism 5.

Data set [13] can be described thus: Pharmacokinetic study. It is filed as in vivo. The conditions noted are these: BALB/c nude, mouse, plasma, ip; 200 mg/kg intraperitoneally, single dose, HeLa xenograft nude mice. As to the method: A HPLC-MS/MS method was developed for single-dose pharmacokinetic (PK) study of YL001 in HeLa xenograft BALB/c nude mice. YL001 was administered intraperitoneally at a dose of 200 mg/kg. Blood samples were then collected by enucleating eyeballs at 0.083, 0.167, 0.333, 0.5, 1, 2, 6, 12, 24 hours in heparinized polypropylene tubes. Three mice were sacrificed at each time point. Samples were centrifuged immediately at 4000 r/min for 20 min to separate plasma. The final sample for HPLC-MS/MS detection by QTRAP 6500 (AB Sciex, USA) was a mixture (plasma: H2O: methanol = 1:1:8). All individual data were pooled together to further perform PK analysis. DAS 2.1.2 were used to estimate PK parameters by non-compartmental analysis.

For data set [14], the system named is AGS. The data set is described as follows: Antiproliferation assay (Alamar Blue), AGS. It is filed as cell-based. The conditions noted are these: Homo sapiens, stomach cancer, read-out: EC50 of YL001. As to the method: as §1

Usually EC50 stands for the concentration needed to bring the measured effect to its halfway point. The term Kd denotes the concentration at which binding is half-saturated. Low values mean higher affinity, high ones lower affinity. The term IC50 denotes the midpoint of a concentration-inhibition curve. A high value points to a need for much substance. By half-life is commonly meant the time in which the quantity being followed falls by half. On to `Cc1ccc(-n2nnnc2/C(=C/N(C)C)C(=O)c2cccc(C(F)(F)F)c2)cc1` [YL001, (Z)-3-(dimethylamino)-2-(1-(p-tolyl)-1H-tetrazol-5-yl)-1-(3-(trifluoromethyl)phenyl)prop-2-en-1-one], for which the concentration giving a half-maximal response (EC50) in data set [1] was 20.1 ± 0.68 µM; in [4], 14.3 ± 0.78 µM; in data set [6], 26.5 ± 0.27 µM; in data set [7], 20 ± 0.5 µM; in data set [9] it was 13.9 ± 5.03 µM; in data set [10] (Homo sapiens, MCF-10A, MCF10A, breast normal cell, read-out: EC50 of YL001), above 100 µM. Besides, the EC50 was determined as 26.2 ± 0.12 µM in [11] and 20.2 ± 0.01 µM in data set [14]. In addition, in data set [2], the Kd was 0.133 µM. The “percentage of cells with 4N DNA content” value in [3] is “over 80%”. Moreover, in data set [5], half-maximal inhibition (IC50) required 0.124 µM. For the same compound, the “reaction with nucleophiles (new products by HRMS)” value in [8] was “no new products were detected”. The Therapeutic window in [10] is given as above 6.7. In addition, in data set [12] (200 mg/kg i.p. daily for 10 days, body weight), the “adverse effects / toxicity” value was “no adverse effects were observed”. For the same compound, the “minimum T/C ratio” value in data set [12] (200 mg/kg i.p. daily for 10 days, tumor volume) is reported as 0.40. Moreover, the Medium survival time in [12] (200 mg/kg, B16 tumor-bearing mice) was above 33 days. In [12] (xenograft mouse model, 200 mg/kg i.p. daily), this compound yielded a tumor growth inhibition of 60%. The same compound showed a half-life in [13] of 5.3 h.
